Test results taken from patent US20260216199A1, “RAF INHIBITOR AND KRAS G12C INHIBITOR COMBINATION THERAPY” (Erasca, Inc., priority 2023, published 2026).

What was measured:
[1] = system: NSCLC-derived Calu-6 (KRAS Q61K); experiment: In vivo KRAS-mutant tumor model Calu-6; details: Calu-6 (KRAS Q61K) model, well-tolerated doses
NCI-H358 (KRAS G12C) = experiment: In vivo KRAS-mutant tumor model NCI-H358; details: well-tolerated doses
BRAF = BRAF (Homo sapiens, UniProt P15056); experiment: BRAF inhibition; format: biochemical
CRAF = CRAF (Homo sapiens, UniProt P04049); experiment: CRAF inhibition; format: biochemical
[2] = system: cell lines that contain a variety of mutations that activate MAPK signaling; experiment: Cell-based anti-proliferative assays; details: cell lines with mutations that activate MAPK signaling

CRAF, sequence (P04049 whole entry): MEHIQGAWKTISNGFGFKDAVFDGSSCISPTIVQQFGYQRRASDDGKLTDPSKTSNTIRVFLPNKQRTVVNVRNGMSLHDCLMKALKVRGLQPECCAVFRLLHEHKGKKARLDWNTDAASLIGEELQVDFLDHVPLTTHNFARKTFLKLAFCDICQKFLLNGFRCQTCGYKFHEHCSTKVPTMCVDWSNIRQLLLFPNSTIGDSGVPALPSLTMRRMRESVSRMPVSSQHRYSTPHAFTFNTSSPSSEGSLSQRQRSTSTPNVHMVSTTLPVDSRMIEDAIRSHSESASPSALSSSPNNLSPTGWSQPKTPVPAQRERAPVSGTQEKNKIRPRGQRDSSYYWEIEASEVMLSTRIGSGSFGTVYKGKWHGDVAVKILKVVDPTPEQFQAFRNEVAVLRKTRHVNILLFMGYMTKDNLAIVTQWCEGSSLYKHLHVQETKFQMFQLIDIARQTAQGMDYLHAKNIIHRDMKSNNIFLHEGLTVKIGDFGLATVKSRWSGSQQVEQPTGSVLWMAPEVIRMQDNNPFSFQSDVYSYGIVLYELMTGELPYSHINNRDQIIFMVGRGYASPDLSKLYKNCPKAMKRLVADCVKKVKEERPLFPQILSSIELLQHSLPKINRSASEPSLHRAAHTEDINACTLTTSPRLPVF
BRAF, sequence (P15056 whole entry): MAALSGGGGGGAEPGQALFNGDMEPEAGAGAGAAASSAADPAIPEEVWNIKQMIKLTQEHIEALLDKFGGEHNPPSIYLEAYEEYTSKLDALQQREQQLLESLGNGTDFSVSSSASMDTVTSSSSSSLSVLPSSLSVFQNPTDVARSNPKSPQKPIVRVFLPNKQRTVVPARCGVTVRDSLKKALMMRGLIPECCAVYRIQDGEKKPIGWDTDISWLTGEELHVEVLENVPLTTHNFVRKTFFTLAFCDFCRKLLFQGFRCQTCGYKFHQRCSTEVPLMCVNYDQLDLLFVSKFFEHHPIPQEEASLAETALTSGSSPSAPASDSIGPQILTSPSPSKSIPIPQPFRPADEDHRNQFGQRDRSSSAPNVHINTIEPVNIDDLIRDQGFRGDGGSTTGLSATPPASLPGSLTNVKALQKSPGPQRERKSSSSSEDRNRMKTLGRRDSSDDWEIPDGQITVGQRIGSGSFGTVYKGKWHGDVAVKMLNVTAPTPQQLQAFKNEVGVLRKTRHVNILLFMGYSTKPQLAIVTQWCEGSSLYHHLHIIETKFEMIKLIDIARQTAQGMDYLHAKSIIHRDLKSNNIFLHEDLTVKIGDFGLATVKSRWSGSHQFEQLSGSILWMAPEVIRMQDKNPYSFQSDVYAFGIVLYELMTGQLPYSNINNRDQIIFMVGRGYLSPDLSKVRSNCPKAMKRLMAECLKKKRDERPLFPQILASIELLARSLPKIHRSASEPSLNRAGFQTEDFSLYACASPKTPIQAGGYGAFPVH

## Cc1ccc(NC(=O)c2ccnc(C(F)(F)F)c2)cc1-c1cc(OCCO)nc(N2CCOCC2)c1 [Compound of formula (I)]
[1]
  tumor response in vivo: tumor regression
NCI-H358 (KRAS G12C)
  tumor response in vivo: tumor regression
BRAF
  inhibition of BRAF: potent inhibitors
CRAF
  inhibition of CRAF: potent inhibitors
[2]
  anti-proliferative activity in cell lines: anti-proliferative activity
